The term Dmax denotes the largest share of the target that was removed. Read a high Dmax as a fuller loss of target. As usually defined, the DC50 is the concentration at which degradation of the target reaches its halfway point.

pIC50: −log10 of the molar value.

Common to all, as to format: cell-based
In test [1] the test system is Caki-2 cells. The experiment in a line: CTG (CellTiter-Glo) cell viability assay, Caki-2. As to conditions: Homo sapiens, CAKI-2, 72 h, Caki-2, 3-day; read-out: CTG Chempartner/PHA- Caki-2 3-day: Average external-IC50. In outline:
(§1)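 Viability read by CellTiter-Glo luminescence after 3 days' compound exposure at 37 °C under 5% CO2, with 10,000 cells per well. Dosing was nine 1:3 dilutions starting at 10 µM, DMSO normalized to 0.2%; IC50 values come from three-parameter logistic curve fitting.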
(In general: Cellular ATP, detected with luciferase, serves as a proxy for viable cell number.)

Test [2] deals with MOLT-4 cells. The experiment in a line: CTG (CellTiter-Glo) cell viability assay, MOLT-4. As to conditions: Homo sapiens, MOLT-4, 72 h, MOLT-4, 3 day; read-out: CTG Cell Viability Assay - MOLT-4 3 day: Average external-IC50. Put shortly: as §1
Test [3] deals with T1, BCL-XL (Homo sapiens, UniProt Q07817).
T1 construct: BCL-XL degradation results in MOLT-4 cells for compounds of the invention; endogenous in cells; host or cells: MOLT-4
T1 sequence (Q07817 whole entry): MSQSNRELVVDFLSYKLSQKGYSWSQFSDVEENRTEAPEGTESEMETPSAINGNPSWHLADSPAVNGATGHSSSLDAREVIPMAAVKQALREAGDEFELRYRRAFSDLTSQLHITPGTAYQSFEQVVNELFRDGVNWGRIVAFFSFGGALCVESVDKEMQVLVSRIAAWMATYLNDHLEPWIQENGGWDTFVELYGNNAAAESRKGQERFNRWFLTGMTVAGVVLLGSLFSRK
Briefly: BCL-XL degradation assay in MOLT-4 cells (ELISA, 6 h). The following applies: for DC50: read-out: Bcl-xL ELISA in MOLT-4 degradation 6 h: External Abs-DC50.

For the compound `Cc1ncsc1-c1ccc(CNC(=O)[C@@H]2C[C@@H](O)CN2C(=O)[C@@H](NC(=O)C2(F)CC2)C(C)(C)C)c(OCCN2CCN(CC[C@H](CSc3ccccc3)Nc3ccc(S(=O)(=O)NC(=O)c4ccc(N5CCC6(CC5)CC(N5CCC[C@H]5c5ccccc5C5CC5)C6)cc4)cc3S(=O)(=O)C(F)(F)F)CC2)c1` [I-31, (2S,4R)—N-(2-(2-(4-((R)-3-((4-(N-(4-(2-((S)-2-(2-cyclopropylphenyl)pyrolidine-1-yl)-7-azaspiro[3.5]nonan-7-yl)benzoyl)sulfamoyl)-2-((trifluoromethyl)sulfonyl)phenyl)amino)-4-(phenylthio)butyl)piperazin-1-yl)ethoxy)-4 (4-methylthiazol-5-yl)benzyl)-1-((S)-2-(1-fluorocyclopropanecarboxamido)-3,3-dimethylbutanoyl)-4-hydroxypyrrolidine-2-carboxamide], the pIC50 in test [1] was > 5.30. For the same compound, the pIC50 in test [2] was 6.00 to 7.00. For the same compound, in test [3], the Dmax lay within 50 to 75% and the half-maximal degradation concentration (DC50) lay in the range of 10 to 100 nM.

For `Cc1ncsc1-c1ccc([C@H](C)NC(=O)[C@@H]2C[C@@H](O)CN2C(=O)[C@@H](NC(=O)CCCCCCNC(=O)c2ccc(-c3ccc(Cl)cc3)c(CN3CCN(c4ccc(C(=O)NS(=O)(=O)c5ccc(N[C@H](CCN(C)C)CSc6ccccc6)c([N+](=O)[O-])c5)cc4)CC3)c2)C(C)(C)C)cc1` [I-11], in test [1], the pIC50 is < 4.52. Besides, the pIC50 in test [2] was < 5.52. Further, in test [3], the Dmax is < 50% and the half-maximal degradation concentration (DC50) is 500 to 1000 nM.

As for `C#Cc1ccc([C@H](C)NC(=O)[C@@H]2C[C@@H](O)CN2C(=O)[C@@H](NC(=O)CCCCCC(=O)N2CCN(CCCNc3ccc(S(=O)(=O)NC(=O)c4ccc(N5CCN(CC6=C(c7ccc(Cl)cc7)CC(C)(C)CC6)CC5)cc4Oc4cnc5[nH]ccc5c4)cc3S(=O)(=O)C(F)(F)F)CC2)C(C)(C)C)cc1F` [I-105], in test [1], the pIC50 was < 4.52. In test [2], the pIC50 was 6.00 to 7.00. In test [3], the Dmax lay within 50 to 75% and the 50% degradation concentration (DC50) was 100 to 500 nM.

For the compound `Cc1ncsc1-c1ccc([C@H](C)NC(=O)[C@@H]2C[C@@H](O)CN2C(=O)[C@@H](NC(=O)CCCCCC(=O)N2CCN(CCCNc3ccc(S(=O)(=O)NC(=O)c4ccc(N5CCN(CC6=C(c7ccc(Cl)cc7)CC(C)(C)CC6)CC5Oc5cnc6[nH]ccc6c5)cc4)cc3S(=O)(=O)C(F)(F)F)CC2)C(C)(C)C)cc1` (stereo partly shown) [I-133], the pIC50 in test [1] is < 4.52; in test [2] it was 6.00 to 7.00. The Dmax in test [3] is < 50%. For the same compound, the DC50 in test [3] lay within 500 to 1000 nM.

`Cc1ncsc1-c1ccc([C@H](C)NC(=O)[C@@H]2C[C@@H](O)CN2C(=O)[C@@H](NC(=O)CCCCCC(=O)N2CCN(CC[C@H](CSc3ccccc3)Nc3ccc(S(=O)(=O)NC(=O)c4ccc(N5CCC([C@@H](O)c6ccccc6-c6ccc(Cl)cc6)CC5)cc4)cc3S(=O)(=O)C(F)(F)F)CC2)C(C)(C)C)cc1` [I-28, (2S,4R)-1-((S)-2-(7-(4-((R)-3-((4-(N-(4-(4-((R)-(4′-chloro-[1,1′-biphenyl]-2-yl)(hydroxy)methyl)piperidin-1-yl)benzoyl)sulfamoyl)-2-((trifluoromethyl)sulfonyl)phenyl)amino)-4-(phenylthio)butyl)piperazin-1-yl)-7-oxoheptanamido)-3,3-dimethylbutanoyl)-4-hydroxy-N—((S)-1-(4-(4-methylthiazol-5-yl)phenyl)ethyl)pyrrolidine-2-carboxamide]: the pIC50 in test [1] is 4.52 to 5.00. Also, the pIC50 in test [2] was > 7.00. In addition, in test [3], the Dmax was > 75% and the DC50 was 10 to 100 nM.

For `Cc1ncsc1-c1ccc([C@H](C)NC(=O)[C@@H]2C[C@@H](O)CN2C(=O)[C@@H](NC(=O)CCCCCCCC(=O)Nc2ccc(-c3ccc(Cl)cc3)c(CN3CCN(c4ccc(C(=O)NS(=O)(=O)c5ccc(N[C@H](CCN(C)C)CSc6ccccc6)c([N+](=O)[O-])c5)cc4)CC3)c2)C(C)(C)C)cc1` [I-10], the pIC50 in test [1] is < 4.52; in test [2], < 5.52. The same compound displayed a Dmax in test [3] of 50 to 75%. Further, in test [3], the DC50 is 100 to 500 nM.

With `C#Cc1ccc([C@H](C)NC(=O)[C@@H]2C[C@@H](O)CN2C(=O)[C@@H](NC(=O)CCCCCC(=O)N2CCN(CC[C@H](CSc3ccccc3)Nc3ccc(S(=O)(=O)NC(=O)c4ccc(N5CCC([C@@H](O)c6ccccc6-c6ccc(Cl)cc6)CC5)cc4)cc3S(=O)(=O)C(F)(F)F)CC2)C(C)(C)C)cc1` (single isomer, unassigned) [I-29], the pIC50 in test [1] was 4.52 to 5.00. Also, the pIC50 in test [2] was 6.00 to 7.00. In test [3], the Dmax is > 75% and the DC50 is 10 to 100 nM.

For the compound `Cc1ncsc1-c1ccc([C@H](C)NC(=O)[C@@H]2C[C@@H](O)CN2C(=O)[C@@H](NC(=O)CCCCCC(=O)N2CCC(NCC[C@H](CSc3ccccc3)Nc3ccc(S(=O)(=O)NC(=O)c4ccc(N5CCN([C@@H](O)c6ccccc6-c6ccc(Cl)cc6)CC5)cc4)cc3S(=O)(=O)C(F)(F)F)CC2)C(C)(C)C)cc1` [I-127], the pIC50 in test [1] was < 4.52. Moreover, the pIC50 in test [2] was < 5.52. Also, in test [3], the greatest degradation seen (Dmax) was 50 to 75% and the DC50 is 500 to 1000 nM.

Regarding `Cc1ncsc1-c1ccc([C@H](C)NC(=O)[C@@H]2C[C@@H](O)CN2C(=O)[C@@H](NC(=O)CCCCCC(=O)N2CCN(CCCNc3ccc(S(=O)(=O)NC(=O)c4ccc(N5CCN(CC6=C(c7ccc(Cl)cc7)CC(C)(C)CC6)CC5)cc4Oc4cnc5[nH]ccc5c4)cc3S(=O)(=O)C(F)(F)F)CC2)C(C)(C)C)cc1` [I-22, (2S,4R)-1-((S)-2-(7-(4-(3-((4-(N-(2-((1H-pyrrolo[2,3-b]pyridin-5-yl)oxy)-4-(4-((4′-chloro-5,5-dimethyl-3,4,5,6-tetrahydro-[1,1′-biphenyl]-2-yl)methyl)piperazin-1-yl)benzoyl)sulfamoyl)-2-((trifluoromethyl)sulfonyl)phenyl)amino)propyl)piperazin-1-yl)-7-oxoheptanamido)-3,3-dimethylbutanoyl)-4-hydroxy-N—((S)-1-(4-(4-methylthiazol-5-yl)phenyl)ethyl)pyrrolidine-2-carboxamide], in test [1], the pIC50 is 4.52 to 5.00. Moreover, the pIC50 in test [2] is 6.00 to 7.00. In addition, in test [3], the Dmax is > 75% and the DC50 lay within 10 to 100 nM.

With `Cc1ncsc1-c1ccc([C@H](C)NC(=O)[C@@H]2C[C@@H](O)CN2C(=O)[C@@H](NC(=O)CCCCCCC(=O)N2CCN(C(=O)c3ccc(-c4ccc(Cl)cc4)c(CN4CCN(c5ccc(C(=O)NS(=O)(=O)c6ccc(N[C@H](CCN(C)C)CSc7ccccc7)c([N+](=O)[O-])c6)cc5)CC4)c3)CC2)C(C)(C)C)cc1` [I-6], the values for the pIC50 in test [1] and in test [2] were < 4.52 and < 5.52, respectively. In addition, in test [3], the Dmax was < 50%. In test [3], the DC50 was 500 to 1000 nM.

`Cc1ncsc1-c1ccc([C@H](C)NC(=O)[C@@H]2C[C@@H](O)CN2C(=O)[C@@H](NC(=O)CCCCCC(=O)N2CCN(Cc3ccc(-c4ccc(Cl)cc4)c(CN4CCN(c5ccc(C(=O)NS(=O)(=O)c6ccc(N[C@H](CCN(C)C)CSc7ccccc7)c([N+](=O)[O-])c6)cc5)CC4)c3)CC2)C(C)(C)C)cc1` [I-7]: the pIC50 in test [1] was < 4.52. In test [2], the pIC50 was < 5.52. Also, in test [3], the Dmax was < 50% and the DC50 lay in the range of 500 to 1000 nM.

Turning to `Cc1ncsc1-c1ccc([C@H](C)NC(=O)[C@@H]2C[C@@H](O)CN2C(=O)[C@@H](NC(=O)CCCCC(=O)N2CCC3(CCN(CC[C@H](CSc4ccccc4)Nc4ccc(S(=O)(=O)NC(=O)c5ccc(N6CCN([C@@H](O)c7ccccc7-c7ccc(Cl)cc7)CC6)cc5)cc4S(=O)(=O)C(F)(F)F)CC3)CC2)C(C)(C)C)cc1` [I-126], the pIC50 in test [1] is > 5.30; in test [2], > 7.00. This compound gave a Dmax in test [3] of 50 to 75%. In test [3], the DC50 was 10 to 100 nM.

As to `Cc1ncsc1-c1ccc([C@H](C)NC(=O)[C@@H]2C[C@@H](O)CN2C(=O)[C@@H](NC(=O)CCCCCN2CCN(CCCNc3ccc(S(=O)(=O)NC(=O)c4ccc(N5CCN(CC6=C(c7ccc(Cl)cc7)CC(C)(C)CC6)CC5)cc4Oc4cnc5[nH]ccc5c4)cc3S(=O)(=O)C(F)(F)F)CC2)C(C)(C)C)cc1` [I-74], the pIC50 in test [1] was < 4.52. The pIC50 in test [2] was 6.00 to 7.00. Besides, in test [3], the Dmax is < 50% and the DC50 lay in the range of 500 to 1000 nM.

For `Cc1ncsc1-c1ccc([C@H](C)NC(=O)[C@@H]2C[C@@H](O)CN2C(=O)[C@@H](NC(=O)CCCC(=O)N2CCN(CCCNc3ccc(S(=O)(=O)NC(=O)c4ccc(N5CCC([C@H](O)c6ccccc6-c6ccc(Cl)cc6)CC5)cc4Oc4cnc5[nH]ccc5c4)cc3S(=O)(=O)C(F)(F)F)CC2)C(C)(C)C)cc1` (single isomer, unassigned) [I-60], the pIC50 in test [1] is < 4.52. For the same compound, the pIC50 in test [2] was 5.52 to 6.00. Further, in test [3], the Dmax was < 50% and the DC50 is 500 to 1000 nM.

As for `Cc1ncsc1-c1ccc([C@H](C)NC(=O)[C@@H]2C[C@@H](O)CN2C(=O)[C@@H](NC(=O)CCCCCN(C)CCCNc2ccc(S(=O)(=O)NC(=O)c3ccc(N4CCC([C@H](O)c5ccccc5-c5ccc(Cl)cc5)CC4)cc3Oc3cnc4[nH]ccc4c3)cc2S(=O)(=O)C(F)(F)F)C(C)(C)C)cc1` [I-67], in test [1], the pIC50 is < 4.52. Moreover, in test [2], the pIC50 was < 5.52. Besides, in test [3], the Dmax is 50 to 75% and the DC50 fell in the range of 500 to 1000 nM.

Consider `Cc1ncsc1-c1ccc([C@H](C)NC(=O)[C@@H]2C[C@@H](O)CN2C(=O)[C@@H](NC(=O)CCCCCCN2CCN(CC[C@H](CSc3ccccc3)Nc3ccc(S(=O)(=O)NC(=O)c4ccc(N5CCC([C@@H](O)c6ccccc6-c6ccc(Cl)cc6)CC5)cc4)cc3S(=O)(=O)C(F)(F)F)CC2)C(C)(C)C)cc1` [I-118], for which the pIC50 in test [1] is < 4.52. Besides, the pIC50 in test [2] is 6.00 to 7.00. In test [3], the Dmax is > 75% and the 50% degradation concentration (DC50) is 10 to 100 nM.
